Response vs control in vivo and IC50 data for 10 compounds are collected here from patent US4684719A, “α,α-trehalose fatty acid diester derivative” (SS Pharmaceutical Co., Ltd., priority 1984, dated 1987).

In brackets after ≈: the same amount, converted by molar mass.

One assay has as its system Ehrlich carcinoma. The assay is described as follows: Activities against Ehrlich carcinoma (antitumor effect, survival time in mice). It is filed as in vivo, ICR female mice. Conditions: Mus musculus, ip, 720 h, intraperitoneal, once a day for 10 days, average survival time counted 30 days after implantation, read-out: Antitumor effect (T/C %). As to the method: (1) Activities against Ehrlich carcinoma:
To 8 ICR female mice as a group, Ehrlich carcinoma cells were intraperitoneally implanted in an amount of 10^5 cells per mouse. From an elapsed time of 24 hours after the implantation, the compound (I) of this invention which was suspended in physiological saline containing 0.5% of CMC-Na was intraperitoneally administered in predetermined dosages (0.4 mg/kg, 4.0 mg/kg and 40.0 mg/kg), once a day and for 10 days.
Upon an elapsed time of 30 days after the implantation of the carcinoma, the survival time of each mouse was counted. The average survival time of Control Group (C) and that of Group (T), in which the compound of this invention was administered, were obtained respectively. Antitumor effect (T/C %) was then determined in accordance with the following equation. [formula]

In the next assay the test system is Leukemia L-5178Y cells. Description: Cell-killing activities (leukemia L-5178Y cells). It is filed as cell-based. The following applies: Mus musculus, L5178Y; 48 hours, 37° C., 5% CO2; live cells counted microscopically, probit diagram method. The protocol: (2) Cell-killing activities:
Leukemia L-5178Y cells were provided to a concentration of 2×10^5cells/ml in PRMI 1640 culture medium which contained 10% of bovine fetus albumin. To portions of the above-prepared culture medium, the compound of this invention was added to concentrations 3.125, 6.25, 12.5, 25, 50, 100 and 300 μg/ml respectively. After culturing them for 48 hours in a 5% CO2 incubator of 37° C., the numbers of live cells on respective portions of the culture were counted microscopically. Percentage proliferation was determined relative to Control and 50% Inhibitory Concentration (IC50) was obtained by the probit diagram method.

On to `CCCCCCCCCC(=O)O[C@H]1[C@H](O)[C@@H](O)[C@@H](O[C@H]2O[C@H](CO)[C@@H](OC(=O)CCCCCCCCC)[C@H](O)[C@H]2O)O[C@@H]1CO` [Compound 15], for which, in the assay on Ehrlich carcinoma, the response vs control in vivo at 0.4 mg/kg worked out at 121%, the response vs control in vivo at 4 mg/kg was found to be 152% and the response vs control in vivo at 40 mg/kg was 188%. This compound had an IC50 in the assay with Leukemia L-5178Y cells of 11.2 µg/mL (≈ 17.2 µM).
On to `CC(=O)O[C@H]1[C@H](O)[C@@H](O)[C@@H](O[C@H]2O[C@H](CO)[C@@H](OC(C)=O)[C@H](O)[C@H]2O)O[C@@H]1CO` [Compound 11], for which, in the assay with Ehrlich carcinoma, the response vs control in vivo at 0.4 mg/kg came out at 154%, the response vs control in vivo at 4 mg/kg stood at 105% and the response vs control in vivo at 40 mg/kg worked out at 114%.
`CCCCCCCCCCCC(=O)O[C@H]1[C@H](O)[C@@H](O)[C@@H](O[C@H]2O[C@H](CO)[C@@H](OC(=O)CCCCCCCCCCC)[C@H](O)[C@H]2O)O[C@@H]1CO` [Compound 16]: in the assay with Ehrlich carcinoma, the response vs control in vivo at 0.4 mg/kg came to 102%, the response vs control in vivo at 4 mg/kg came out at 180% and the response vs control in vivo at 40 mg/kg stood at 225%. This compound also gave an IC50 in the assay on Leukemia L-5178Y cells of 8.4 µg/mL (≈ 11.9 µM).
The like results for `CCCCCCCC(=O)O[C@H]1[C@H](O)[C@@H](O)[C@@H](O[C@H]2O[C@H](CO)[C@@H](OC(=O)CCCCCCC)[C@H](O)[C@H]2O)O[C@@H]1CO` [Compound 14] were, in that order, 136%, 117%, 183% and 35.1 µg/mL (≈ 59 µM).
As for `CCCCCCCCCCCCCCCCCCCCCC(=O)O[C@H]1[C@H](O)[C@@H](O)[C@@H](O[C@H]2O[C@H](CO)[C@@H](OC(=O)CCCCCCCCCCCCCCCCCCCCC)[C@H](O)[C@H]2O)O[C@@H]1CO` [Compound 20], in the assay on Ehrlich carcinoma, the response vs control in vivo at 0.4 mg/kg is 165%, the response vs control in vivo at 4 mg/kg came out at 179% and the response vs control in vivo at 40 mg/kg worked out at 157%.
Regarding `CCCCCC(=O)O[C@H]1[C@H](O)[C@@H](O)[C@@H](O[C@H]2O[C@H](CO)[C@@H](OC(=O)CCCCC)[C@H](O)[C@H]2O)O[C@@H]1CO` [Compound 13], in the assay on Ehrlich carcinoma, the response vs control in vivo at 0.4 mg/kg is 127%, the response vs control in vivo at 4 mg/kg turned out to be 120% and the response vs control in vivo at 40 mg/kg was determined as 103%. For the same compound, the IC50 with Leukemia L-5178Y cells is greater than 300 µg/mL.
For `CCCCCCCCCCCCCC(=O)O[C@H]1[C@H](O)[C@@H](O)[C@@H](O[C@H]2O[C@H](CO)[C@@H](OC(=O)CCCCCCCCCCCCC)[C@H](O)[C@H]2O)O[C@@H]1CO` [Compound 17], in the assay with Ehrlich carcinoma, the response vs control in vivo at 0.4 mg/kg turned out to be 98%, the response vs control in vivo at 4 mg/kg was found to be 203% and the response vs control in vivo at 40 mg/kg worked out at 203%. Also, the IC50 with Leukemia L-5178Y cells stood at 12.6 µg/mL (≈ 16.5 µM).
In the case of `CCCCCCCCCCCCCCCCCC(=O)O[C@H]1[C@H](O)[C@@H](O)[C@@H](O[C@H]2O[C@H](CO)[C@@H](OC(=O)CCCCCCCCCCCCCCCCC)[C@H](O)[C@H]2O)O[C@@H]1CO` [Compound 19, 4,4'-di-O-stearoyl-α,α-trehalose], in the assay with Ehrlich carcinoma, the response vs control in vivo at 0.4 mg/kg came to 98%, the response vs control in vivo at 4 mg/kg amounted to 183% and the response vs control in vivo at 40 mg/kg amounted to 198%.
As for `CCCCCCCCCCCCCCCC(=O)O[C@H]1[C@H](O)[C@@H](O)[C@@H](O[C@H]2O[C@H](CO)[C@@H](OC(=O)CCCCCCCCCCCCCCC)[C@H](O)[C@H]2O)O[C@@H]1CO` [Compound 18], in the assay with Ehrlich carcinoma, the response vs control in vivo at 0.4 mg/kg is 125%, the response vs control in vivo at 4 mg/kg came to 216% and the response vs control in vivo at 40 mg/kg stood at 189%. Also, the IC50 in the assay on Leukemia L-5178Y cells was greater than 300 µg/mL.
On to `CCCC(=O)O[C@H]1[C@H](O)[C@@H](O)[C@@H](O[C@H]2O[C@H](CO)[C@@H](OC(=O)CCC)[C@H](O)[C@H]2O)O[C@@H]1CO` [Compound 12], for which, in the assay with Ehrlich carcinoma, the response vs control in vivo at 0.4 mg/kg amounted to 141%, the response vs control in vivo at 4 mg/kg is 142% and the response vs control in vivo at 40 mg/kg came to 114%.

What is called IC50 is the concentration at which inhibition is half-maximal.
